According to US10231453B2, “5-substituted imidazole derivatives” (BAYER CROPSCIENCE AKTIENGESELLSCHAFT, priority 2015, dated 2019):
Like-named read-outs stand apart in the source and are kept apart here.

Columns and labels:
Alternaria solani = assay: In vivo preventive Alternaria test (tomatoes), Example H; details: 72 h, 100 ppm of active ingredient, preventive spray, evaluated 3 days after inoculation, read-out: efficacy
Uromyces appendiculatus = assay: In vivo preventive test on Uromyces appendiculatus (bean rust), Examples G and R7; details: 264 h, preventive spray, evaluated 11 days after inoculation
Puccinia recondita = assay: In vivo preventive test on Puccinia recondita (brown rust on wheat), Examples C and R3; details: Puccinia recondita, 264 h, preventive spray, evaluated 11 days after inoculation
[1] = system: Fusarium nivale (var. majus); assay: In vivo preventive Fusarium nivale (var. majus) test (wheat), Example O; details: Microdochium nivale, 120 h, 500 ppm of active ingredient, preventive spray, evaluated 5 days after inoculation, read-out: efficacy
Description: After the spray coating has been dried, the plants are slightly injured by using a sandblast and afterwards they are sprayed with a conidia suspension of Fusarium nivale (var. majus).

Pyrenophora teres = assay: In vivo preventive test on Pyrenophora teres (net blotch on barley), Examples D, Q2 and R4; details: Pyrenophora teres, 336 h
Leptosphaeria nodorum [2] = assay: In vitro test for the calculation of the ED50-value with microorganisms, Example Q4: Leptosphaeria nodorum; type: cell-based; details: liquid culture, spore suspension, 4 to 7 days incubation, spectrometric measurement of mycelium growth
Sphaerotheca fuliginea = assay: In vivo preventive test on Sphaerotheca fuliginea (powdery mildew on cucurbits), Examples F and R6; details: Podosphaera fuliginea, 360 h, preventive spray, evaluated 15 days after inoculation
[3] = system: Blumeria graminis fsp. hordei; assay: In vivo preventive Blumeria test (barley), Example K; details: 168 h, 500 ppm of active ingredient, preventive spray, evaluated 7 days after inoculation, read-out: efficacy
Description: After the spray coating has been dried, the plants are dusted with spores of Blumeria graminis fsp. hordei.

Septoria tritici [4] = assay: In vitro test for the calculation of the ED50-value with microorganisms, Example Q4: Septoria tritici; type: cell-based; details: liquid culture, spore suspension, 4 to 7 days incubation, spectrometric measurement of mycelium growth
Fusarium graminearum = assay: whole plant or invertebrate; type: in vivo; details: in Hordeum vulgare, 120 h, read-out: efficacy
Leptosphaeria nodorum [5] = assay: In vivo preventive Leptosphaeria nodorum test (wheat), Example N; details: Parastagonospora nodorum, 192 h, 500 ppm of active ingredient, preventive spray, evaluated 8 days after inoculation, read-out: efficacy
Description: After the spray coating has been dried, the plants are sprayed with a spore suspension of Leptosphaeria nodorum.

Venturia inaequalis = assay: In vivo preventive Venturia test (apples), Example J; details: 240 h, read-out: efficacy
Description: After the spray coating has dried on, the plants are inoculated with an aqueous conidia suspension of the causal agent of apple scab (Venturia inaequalis) and then remain for 1 day in an incubation cabinet at approximately 20° C. and a relative atmospheric humidity of 100%.
The plants are then placed in a greenhouse at approximately 21° C. and a relative atmospheric humidity of approximately 90%.
The test is evaluated 10 days after the inoculation.

Phakopsora pachyrhizi = assay: In vivo preventive Phakopsora test (soybeans), Example I; details: 168 h, 100 ppm of active ingredient, preventive spray, evaluated 7 days after inoculation, read-out: efficacy
Botrytis cinerea [6] = assay: In vitro test for the calculation of the ED50-value with microorganisms, Example Q4: Botrytis cinerea; type: cell-based; details: liquid culture, spore suspension, 4 to 7 days incubation, spectrometric measurement of mycelium growth
Septoria tritici [7] = assay: In vivo preventive test on Septoria tritici (leaf spot on wheat), Examples E, Q3 and R5; details: Zymoseptoria tritici, 576 h
Botrytis cinerea [8] = assay: In vivo preventive test on Botrytis cinerea (grey mould) on gherkin, Examples B, Q1 and R2
Fusarium culmorum [9] = assay: In vitro test for the calculation of the ED50-value with microorganisms, Example Q4: Fusarium culmorum; type: cell-based; details: liquid culture, spore suspension, 4 to 7 days incubation, spectrometric measurement of mycelium growth
Description: • Solvent: Dimethyl sulfoxide • Culture medium: 14.6 g anhydrous D-glucose (VWR), 7.1 g Mycological Peptone (Oxoid), 1.4 g granulated Yeast Extract (Merck), QSP liter • Inoculum: Spore suspension
Fungicides were solubilized in DMSO and the solution used to prepare the required range of concentrations. The final concentration of DMSO used in the assay was ≤1%.
A spore suspension was prepared and diluted to the desired spore density.
Fungicides were evaluated for their ability to inhibit spore germination and mycelium growth in liquid culture assay. The compounds were added in the desired concentration to the culture medium with spores. After 4 to 7 days incubation, fungi-toxicity of compounds was determined by spectrometric measurement of mycelium growth. Inhibition of fungal growth was determined by comparing the absorbance values in wells containing the fungicides with the absorbance in control wells without fungicides.

Fusarium culmorum [10] = assay: In vivo preventive Fusarium culmorum test (wheat), Example L; details: 120 h, 500 ppm of active ingredient, preventive spray, evaluated 5 days after inoculation, read-out: efficacy
Description: After the spray coating has been dried, the plants are slightly injured by using a sandblast and afterwards they are sprayed with a conidia suspension of Fusarium culmorum.
The test is evaluated 5 days after the inoculation.

## N#Cc1cncn1CC(O)(Cc1ccc(Cl)cc1F)C1(Cl)CC1 (stereo not drawn) [Example I-29]
Alternaria solani
  pest or weed control at 100 ppm: 90 to 100%
Uromyces appendiculatus; 500 ppm of active ingredient, bean, read-out: efficacy
  pest or weed control at 500 ppm: 90 to 100%
Uromyces appendiculatus; Example R7, bean, 100 ppm, read-out: Efficacy in %
  pest or weed control at 100 ppm: 100%
Uromyces appendiculatus; Example R7, bean, 500 ppm, read-out: Efficacy in %
  pest or weed control at 500 ppm: 100%
Puccinia recondita; 500 ppm of active ingredient, wheat, read-out: efficacy
  pest or weed control at 500 ppm: 90 to 100%
Puccinia recondita; Example R3, wheat, 100 ppm, read-out: Efficacy in %
  pest or weed control at 100 ppm: 94%
Puccinia recondita; Example R3, wheat, 500 ppm, read-out: Efficacy in %
  pest or weed control at 500 ppm: 98%
[1]
  pest or weed control at 500 ppm: 90 to 100%
Pyrenophora teres; 500 ppm of active ingredient, preventive spray, evaluated 14 days after inoculation, read-out: efficacy
  pest or weed control at 500 ppm: 80 to 89%
Pyrenophora teres; Example Q2, rate of application 100 ppm, read-out: Efficacy in %
  pest or weed control at 100 ppm: 83%
Pyrenophora teres; Example Q2, rate of application 500 ppm, read-out: Efficacy in %
  pest or weed control at 500 ppm: 89%
Pyrenophora teres; Example R4, rate of application 100 ppm, read-out: Efficacy in %
  pest or weed control at 100 ppm: 83%
Pyrenophora teres; Example R4, rate of application 500 ppm, read-out: Efficacy in %
  pest or weed control at 500 ppm: 89%
Leptosphaeria nodorum [2]
  Leptosphaeria nodorum ED50 value in ppm: 0.02 ppm
Sphaerotheca fuliginea; 500 ppm of active ingredient, gherkin, read-out: efficacy
  pest or weed control at 500 ppm: 90 to 100%
Sphaerotheca fuliginea; Example R6, gherkin, 100 ppm, read-out: Efficacy in %
  pest or weed control at 100 ppm: 100%
Sphaerotheca fuliginea; Example R6, gherkin, 500 ppm, read-out: Efficacy in %
  pest or weed control at 500 ppm: 100%
[3]
  pest or weed control at 500 ppm: 90 to 100%
Septoria tritici [4]
  Septoria tritici ED50 value in ppm: <0.006 ppm
Fusarium graminearum
  pest or weed control at 500 ppm: 90 to 100%
Leptosphaeria nodorum [5]
  pest or weed control at 500 ppm: 90 to 100%
Venturia inaequalis
  pest or weed control at 100 ppm: 90 to 100%
Phakopsora pachyrhizi
  pest or weed control at 100 ppm: 90 to 100%
Botrytis cinerea [6]
  Botrytis cinerea ED50 value in ppm: 0.26 ppm
Septoria tritici [7]; 500 ppm of active ingredient, wheat, preventive spray, evaluated 24 days after inoculation, read-out: efficacy
  pest or weed control at 500 ppm: 90 to 100%
Septoria tritici [7]; Example Q3, rate of application 100 ppm, wheat, read-out: Efficacy in %
  pest or weed control at 100 ppm: 100%
Septoria tritici [7]; Example Q3, rate of application 500 ppm, wheat, read-out: Efficacy in %
  pest or weed control at 500 ppm: 100%
Septoria tritici [7]; Example R5, wheat, preventive spray, 100 ppm, evaluated 24 days after inoculation, read-out: Efficacy in %
  pest or weed control at 100 ppm: 100%
Septoria tritici [7]; Example R5, wheat, preventive spray, 500 ppm, evaluated 24 days after inoculation, read-out: Efficacy in %
  pest or weed control at 500 ppm: 100%
Botrytis cinerea [8]; Botrytis cinerea, 500 ppm of active ingredient, preventive spray, evaluated 4 to 5 days after inoculation, read-out: efficacy
  pest or weed control at 500 ppm: 90 to 100%
Botrytis cinerea [8]; Botrytis cinerea, Example Q1, rate of application 100 ppm, read-out: Efficacy in %
  pest or weed control at 100 ppm: 86%
Botrytis cinerea [8]; Botrytis cinerea, Example Q1, rate of application 500 ppm, read-out: Efficacy in %
  pest or weed control at 500 ppm: 99%
Botrytis cinerea [8]; Example R2, rate of application 100 ppm
  Efficacy in %: 86%
Botrytis cinerea [8]; Example R2, rate of application 500 ppm
  Efficacy in %: 99%
Fusarium culmorum [9]
  Fusarium culmorum ED50 value in ppm: 0.01 ppm
Fusarium culmorum [10]
  pest or weed control at 500 ppm: 80 to 89%
